Data set [1] concerns the target T1, porcine brain tubulin (Sus scrofa, UniProt P02550+P02554).
T1 construct: purchased Cytoskeleton, Denver, CO; host or cells: porcine brain (tissue-purified)
In words: Tubulin polymerisation assay. The class given is biochemical. The following applies: 10 μmol/L, Vmax relative to DMSO. As for the experimental part: Tubulin polymerisation assay kit (Cytoskeleton, Denver, CO) was used according to the manufacturer’s instructions. Polymerisation of porcine brain tubulin (>99% purity) was measured using an EnVision Multilabel Plate Reader (PerkinElmer, Waltham, MA) at 37 °C, in the presence of either 10 μmol/L test compounds or DMSO. Maximum polymerisation velocity (Vmax) was calculated from the polymerisation curves. Data visualisation was performed in OriginPro 2018b (b9.5.5.409) software (OriginLab Corporation, Northampton, MA)[10].

Data set [2] in a line: MTS cytotoxicity assay, HUVEC. The class given is cell-based. To be noted: human, HUVEC cells (umbilical vein endothelial cells); MTS assay, 72-h incubation, mean ± SD of 3 independent experiments; read-out: IC50 cytotoxic activity HUVEC. As for the experimental part:
(§1) The p53 deficient variant, HCT116p53−/−, was purchased from Horizon Discovery (Cambridge, UK). The daunorubicin-resistant CCRF-CEM cell line CEM-DNR bulk and paclitaxel-resistant K562-TAX sublines were developed in-house by exposing parental cell lines to escalating concentrations of daunorubicin and paclitaxel, respectively. Cells were maintained in the recommended culture medium (Sigma-Aldrich, St. Louis, MO) supplemented with 10% foetal calf serum, 100 U/mL penicillin, and 100 μg/mL streptomycin. The HUVEC line was obtained from PromoCell (Heidelberg, Germany). The cells were cultured in endothelial cell growth medium with SupplementMix for endothelial cells (PromoCell, Heidelberg, Germany). The incubation conditions were a humidified atmosphere of 95% air and 5% CO2 at 37 °C[10]. Cells were seeded in 384-well plates and after overnight incubation treated with compounds. All tested compounds were dissolved in 100% DMSO, and fourfold serial dilutions were performed using an Echo550 liquid handler (Labcyte, San Jose, CA). The experiments were performed in technical duplicates and three biological replicates. Cells were incubated with compounds for 72 h and thereafter 5 μL of MTS reagent was added to each well.
(Tetrazolium dyes change colour on reduction, which living cells bring about.)

The subject of data set [3] is A549 (lung adenocarcinoma). Nature of the data set: MTS cytotoxicity assay, A549. In kind it is cell-based, human. The following applies: Homo sapiens, A549; MTS assay, 72-h incubation, mean ± SD of 3 independent experiments; read-out: IC50 cytotoxic activity A549. As for the experimental part: as §1
Data set [4] deals with K562-TAX (paclitaxel-resistant variant of K562). Nature of the data set: MTS cytotoxicity assay, K562-TAX. The class given is cell-based, human. The following applies: Homo sapiens, K562-Tax; MTS assay, 72-h incubation, mean ± SD of 3 independent experiments; read-out: IC50 cytotoxic activity K562-TAX. As for the experimental part: as §1
Data set [5] relates to CCRF-CEM lymphoblasts. Nature of the data set: Cell cycle analysis by flow cytometry (propidium iodide). In kind it is cell-based, human. The procedure:
(§2) To further characterise the mode of action of studied compounds, we analysed the cell cycle profile of CCRF-CEM cells treated with compounds for 24 h. […] The compounds ED1–ED9 and ED12 induced arrest in G2/M phase of the cell cycle (Figure 2(A)). To differentiate between G2 block and mitotic arrest, we used phospho-histone H3 (Ser10) mitotic marker (Figure 2(B)). […] Generally, dimers induced a dose-dependent increase of sub G1 cell population with fragmented DNA except for ED2 and ED4 (Figure 2(C)). […] To assess the proliferation of treated cells, they were subjected to 5-bromo-2-deoxyuridine (BrDU) labelling. […] Analogously, changes in 5-bromouridine (BrU) incorporation were examined to monitor overall RNA synthesis.
(§3) Treated CCRF-CEM cells were harvested, washed with ice-cold phosphate-buffered saline (PBS), fixed in cold 70% ethanol and stored at −20 °C. Prior to analysis, fixed cells were permeabilised with 0.25% Triton X-100 in PBS for 15 min, blocked in 1% bovine serum, and incubated with anti-phospho-Histone H3 (Ser^10) antibody (Merck Millipore, Burlington, MA). Subsequently, the cells were treated with 50 μg/mL RNAse, stained with propidium iodide and analysed by FACSCalibur (Becton Dickinson, Franklin Lakes, NJ) flow cytometer at 488 nm. Cell cycle distribution (G1, S, and G2/M) was analysed using ModFitLT software (Verity, Topsham, ME), and reflects only viable population prior to the fixing procedure. Particles with lower propidium iodide content than G1 phase cells were classified as non-viable cells with fragmented DNA. Flow cytometry data visualisation was performed using OriginPro 2018b (b9.5.5.409) software (OriginLab Corporation, Northampton, MA)[10].
Background: A flow cytometer gives signals particle by particle.

Data set [6] concerns CCRF-CEM lymphoblasts. In words: BrU incorporation analysis (RNA synthesis). In kind it is cell-based, human. The procedure:
as §2
Prior to the trypsinisation, cells were treated with 1 mM BrU for 30 min. Subsequently, the cells were fixed in 1% paraformaldehyde with 0.05% of NP-40 for 15 min at RT and stored overnight at 4 °C. Fixed cells were washed with 1% glycine in PBS and stained with primary anti-BrdU antibody clone MoBu-1 crossreacting with BrU (Exbio, Vestec, Czech Republic) for 30 min at RT, washed with PBS and labelled with secondary anti-mouse-FITC antibody (Sigma-Aldrich, St. Louis, MO). Following 1-h incubation in 1% paraformaldehyde containing 0.05% NP-40, cells were stained with propidium iodide (0.1 mg/mL) and treated with RNase A (0.5 mg/mL) for 1 h at RT. The percentage of BrU positive cells was quantified using CellQuest software.

Data set [7] relates to CCRF-CEM lymphoblasts. In words: BrDU incorporation analysis (DNA synthesis). In kind it is cell-based, human. The procedure:
as §2
Thirty minutes before harvesting, cells were pulse-labelled with 10 μM BrDU. After overnight fixation in ice-cold 70% ethanol, cells were resuspended in 2 M HCl for 30 min at room temperature (RT), then washed with 0.1 M Na2B4O7 and blocked with PBS containing 0.5% Tween-20 and 1% BSA. BrDU incorporation was analysed using anti-BrdU antibody clone MoBu-1 (Exbio, Vestec, Czech Republic) and a secondary anti-mouse-FITC antibody (Sigma-Aldrich, St. Louis, MO). Cells were washed with PBS and stained with 0.1 mg/mL propidium iodide and 0.5 mg/mL RNase A for 1 h at RT and analysed by flow cytometry using a 488 nm single beam laser (FACSCalibur, Becton Dickinson, Franklin Lakes, NJ). The percentage of cells with incorporated BrDU was analysed using CellQuest software.

Data set [8] has as its system CCRF-CEM (childhood T-cell acute lymphoblastic leukaemia). Nature of the data set: MTS cytotoxicity assay, CCRF-CEM. To be noted: Homo sapiens, MTS assay, 72-h incubation, mean ± SD of 3 independent experiments, read-out: IC50 cytotoxic activity CCRF-CEM. In kind it is cell-based. As for the experimental part:
as §1

Data set [9] concerns K562 (chronic myelogenous leukaemia). In words: MTS cytotoxicity assay, K562. To be noted: Homo sapiens, K562; MTS assay, 72-h incubation, mean ± SD of 3 independent experiments; read-out: IC50 cytotoxic activity K562. The class given is cell-based. The procedure:
as §1

Data set [10] relates to U2OS (osteosarcoma). In words: MTS cytotoxicity assay, U2OS. In kind it is cell-based, human. The following applies: Homo sapiens, U2OS; MTS assay, 72-h incubation, mean ± SD of 3 independent experiments; read-out: IC50 cytotoxic activity U2OS. As for the experimental part:
as §1

Data set [11] relates to CEM-DNR (daunorubicin resistant variant of CCRF-CEM). In words: MTS cytotoxicity assay, CEM-DNR. In kind it is cell-based, human. To be noted: Homo sapiens, CEM-DNR; MTS assay, 72-h incubation, mean ± SD of 3 independent experiments; read-out: IC50 cytotoxic activity CEM-DNR. The procedure:
as §1

The subject of data set [12] is CCRF-CEM lymphoblasts. In words: Phospho-histone H3 (Ser10) mitotic marker, flow cytometry. In kind it is cell-based, human. The procedure:
as §2, §3

Data set [13] can be described thus: MTS cytotoxicity assay, MRC-5. To be noted: human, MRC-5 cells (non-tumour fibroblasts); MTS assay, 72-h incubation, mean ± SD of 3 independent experiments; read-out: IC50 cytotoxic activity MRC-5. The class given is cell-based. As for the experimental part: as §1
A short description of data set [14]: MTS cytotoxicity assay, BJ. To be noted: human, BJ cells (non-tumour skin fibroblasts); MTS assay, 72-h incubation, mean ± SD of 3 independent experiments; read-out: IC50 cytotoxic activity BJ. The class given is cell-based. The procedure: as §1
Data set [15] relates to HCT116 (colorectal adenocarcinoma). In words: MTS cytotoxicity assay, HCT116. In kind it is cell-based. The following applies: Homo sapiens, HCT-116; MTS assay, 72-h incubation, mean ± SD of 3 independent experiments; read-out: IC50 cytotoxic activity HCT116. As for the experimental part: as §1
In data set [16] the test system is HCT116p53−/− (p53 gene null variant of HCT116). In words: MTS cytotoxicity assay, HCT116p53−/−. The class given is cell-based. The following applies: Homo sapiens, HCT-116; MTS assay, 72-h incubation, mean ± SD of 3 independent experiments; read-out: IC50 cytotoxic activity HCT116p53-. As for the experimental part:
as §1

The text below walks through data of paper PMC467089, “Click estradiol dimers with novel aromatic bridging units: synthesis and anticancer evaluation” (Journal of Enzyme Inhibition and Medicinal Chemistry, 2024).

The term IC50 denotes the concentration that gives 50% inhibition.

T1 sequence (P02550 whole entry): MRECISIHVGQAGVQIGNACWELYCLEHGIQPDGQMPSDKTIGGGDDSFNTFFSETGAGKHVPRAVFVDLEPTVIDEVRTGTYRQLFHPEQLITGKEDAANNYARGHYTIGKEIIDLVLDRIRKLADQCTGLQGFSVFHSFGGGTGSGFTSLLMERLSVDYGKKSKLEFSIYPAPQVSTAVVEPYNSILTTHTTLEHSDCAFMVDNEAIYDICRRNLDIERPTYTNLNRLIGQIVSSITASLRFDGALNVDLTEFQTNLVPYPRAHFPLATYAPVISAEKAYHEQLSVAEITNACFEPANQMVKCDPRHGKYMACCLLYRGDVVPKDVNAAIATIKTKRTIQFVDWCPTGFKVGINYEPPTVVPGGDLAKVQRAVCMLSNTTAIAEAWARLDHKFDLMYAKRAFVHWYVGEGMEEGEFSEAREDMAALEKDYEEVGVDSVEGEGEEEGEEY
T1 sequence (P02554 whole entry): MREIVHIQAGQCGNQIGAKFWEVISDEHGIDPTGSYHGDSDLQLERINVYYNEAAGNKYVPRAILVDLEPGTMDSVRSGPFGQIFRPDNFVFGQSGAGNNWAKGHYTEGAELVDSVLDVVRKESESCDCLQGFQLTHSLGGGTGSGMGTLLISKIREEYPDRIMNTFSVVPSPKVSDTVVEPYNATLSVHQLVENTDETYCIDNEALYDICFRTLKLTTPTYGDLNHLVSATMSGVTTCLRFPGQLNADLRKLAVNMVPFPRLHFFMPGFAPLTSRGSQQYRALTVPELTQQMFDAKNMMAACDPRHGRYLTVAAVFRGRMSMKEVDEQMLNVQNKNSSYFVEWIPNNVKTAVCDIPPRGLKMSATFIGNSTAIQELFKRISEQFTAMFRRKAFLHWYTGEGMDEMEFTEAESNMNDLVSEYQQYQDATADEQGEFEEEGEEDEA

For the compound `Cc1cc(C)c(Cn2cc([C@]3(O)CC[C@H]4[C@@H]5CCc6cc(O)ccc6[C@H]5CC[C@@]43C)nn2)c(C)c1Cn1cc([C@]2(O)CC[C@H]3[C@@H]4CCc5cc(O)ccc5[C@H]4CC[C@@]32C)nn1` [ED10, 17,17′-[(2,4,6-Trimethyl-1,3-phenylene)bis(methylene-1H-1,2,3-triazole-1,4-diyl)]di[estra-1,3,5(10)-triene-3,17β-diol]], in data set [1], the “inhibitory activity against tubulin polymerisation (in words)” value was “inactive”.

For the compound `COc1cc2c(cc1O)CC[C@@H]1[C@@H]2CC[C@]2(C)[C@@H](O)CC[C@@H]12` [ME, 2-methoxyestradiol, reference compound], the half-maximal inhibitory concentration (IC50) at 72 h in [2] was 1.07 ± 0.18 µM; in [13] it was over 50 µM; in [14], over 50 µM. Moreover, the IC50 in data set [3] was determined as 2.26 ± 0.15 µM; in data set [4] it was 1.32 ± 0.2 µM; in [8], 1.61 ± 0.097 µM; in [9] it was 1.43 ± 0.39 µM; in data set [10] it was 2.13 ± 0.3 µM; in data set [11], 1.61 ± 0.2 µM. Further, the IC50 was 1.58 ± 0.25 µM in data set [15] and 1.99 ± 0.41 µM in data set [16]. For the same compound, the “<G1 (sub-G1, fragmented DNA), % of positive cells” value in [5] (1×IC50, 24 h) is 23.97%; in data set [5] (5×IC50, 24 h), 65.32%. In addition, the “>G2/M (polyploidy), % of positive cells” value in data set [5] (1×IC50, 24 h) worked out at 6.2%; in [5] (5×IC50, 24 h), 10.4%. Also, the “G0/G1, % of positive cells” value is 31.50% in [5] (1×IC50, 24 h) and 1.19% in data set [5] (5×IC50, 24 h). The “G2/M, % of positive cells” value worked out at 28.85% in [5] (1×IC50, 24 h) and 84.03% in data set [5] (5×IC50, 24 h). For the same compound, the “S, % of positive cells” value in data set [5] (1×IC50, 24 h) is listed as 39.65%; in data set [5] (5×IC50, 24 h), 14.77%. Also, the “BrU, % of positive cells” value is reported as 23.60% in [6] (1×IC50, 24 h) and 46.10% in [6] (5×IC50, 24 h). The “BrDU, % of positive cells” value in data set [7] (1×IC50, 24 h) was 9.31%; in data set [7] (5×IC50, 24 h), 9.49%. Also, the “pH3Ser10, % of positive cells” value in data set [12] (1×IC50, 24 h) is 17.74%; in data set [12] (5×IC50, 24 h), 67.40%.

For `C[C@]12CC[C@@H]3c4ccc(O)cc4CC[C@H]3[C@@H]1CC[C@@]2(O)c1cn(Cc2c(Cl)c(Cl)c(Cl)c(Cn3cc([C@]4(O)CC[C@H]5[C@@H]6CCc7cc(O)ccc7[C@H]6CC[C@@]54C)nn3)c2Cl)nn1` [ED11, 17,17′-[(2,4,5,6-Tetrachloro-1,3-phenylene)bis(methylene-1H-1,2,3-triazole-1,4-diyl)]di[estra-1,3,5(10)-triene-3,17β-diol]], in data set [1], the “inhibitory activity against tubulin polymerisation (in words)” value is “inactive”.

With `C#C[C@]1(O)CC[C@H]2[C@@H]3CCc4cc(O)ccc4[C@H]3CC[C@@]21C` [EE, 17α-ethinylestradiol, reference compound], the IC50 was determined as 31.5 ± 4.16 µM in data set [3]; 15.6 ± 6.25 µM in data set [4]; 8.72 ± 2.17 µM in data set [9]; 22.4 ± 5.65 µM in [10]; 23 ± 4.7 µM in data set [11]; 30 ± 6.89 µM in [15]. Besides, the IC50 in data set [16] is 33.6 ± 11.9 µM. In addition, the IC50 at 72 h in [13] and in [14] was over 50 µM throughout.
